# Assay results: patent US20250243196A1, “CITRON KINASE INHIBITORS” (The Cleveland Clinic Foundation, priority 2021, published 2025)
# Experiments:
# Type in all cases: biochemical
# PKD2(h) = PKD2(h) (Homo sapiens (Human), UniProt Q9BZL6); assay: KinaseProfiler panel; parameters: dose or concentration left out as unconfirmed; conditions: activity remaining
# BRK(h) = BRK(h) (Homo sapiens (Human), UniProt Q13882); assay: KinaseProfiler panel; parameters: dose or concentration left out as unconfirmed; conditions: activity remaining
# TSSK4(h) = TSSK4(h) (Homo sapiens (Human), UniProt Q6SA08); assay: KinaseProfiler panel; parameters: dose or concentration left out as unconfirmed; conditions: activity remaining
# TLK2(h) = TLK2(h) (Homo sapiens (Human), UniProt Q86UE8); assay: KinaseProfiler panel; conditions: activity remaining
# PASK(h) = PASK(h) (Homo sapiens (Human), UniProt Q96RG2); assay: KinaseProfiler panel; parameters: dose or concentration left out as unconfirmed; conditions: activity remaining
# HIPK2(h) = HIPK2(h) (Homo sapiens (Human), UniProt Q9H2X6); assay: KinaseProfiler panel; parameters: dose or concentration left out as unconfirmed; conditions: activity remaining
# MLK3(h) = MLK3(h) (Homo sapiens (Human), UniProt Q16584); assay: KinaseProfiler panel; parameters: dose or concentration left out as unconfirmed; conditions: activity remaining
# Abl(h) = Abl(h) (Homo sapiens (Human), UniProt P00519); assay: KinaseProfiler panel; parameters: dose or concentration left out as unconfirmed; conditions: activity remaining
# p70S6K(h) = p70S6K(h) (Homo sapiens (Human), UniProt P23443); assay: KinaseProfiler panel; parameters: dose or concentration left out as unconfirmed; conditions: activity remaining
# BrSK2(h) = BrSK2(h) (Homo sapiens (Human), UniProt Q8IWQ3); assay: KinaseProfiler panel; parameters: dose or concentration left out as unconfirmed; conditions: activity remaining
# FGFR4(h) = FGFR4(h) (Homo sapiens (Human), UniProt P22455); assay: KinaseProfiler panel; parameters: dose or concentration left out as unconfirmed; conditions: activity remaining
# HIPK1(h) = HIPK1(h) (Homo sapiens (Human), UniProt Q86Z02); assay: KinaseProfiler panel; parameters: dose or concentration left out as unconfirmed; conditions: activity remaining
# CDK9/cyclin T1(h) = CDK9/cyclin T1(h) (Homo sapiens (Human), UniProt P50750); assay: KinaseProfiler panel; parameters: dose or concentration left out as unconfirmed; conditions: activity remaining
# CHK2(h) = CHK2(h) (Homo sapiens (Human), UniProt O96017); assay: KinaseProfiler panel; parameters: dose or concentration left out as unconfirmed; conditions: activity remaining
# TGFBR2(h) = TGFBR2(h) (Homo sapiens (Human), UniProt P37173); assay: KinaseProfiler panel; parameters: dose or concentration left out as unconfirmed; conditions: activity remaining
# PAR-1Bα(h) = PAR-1Bα(h) (Homo sapiens (Human), UniProt Q7KZI7); assay: KinaseProfiler panel; parameters: dose or concentration left out as unconfirmed; conditions: activity remaining
# ErbB2(h) = ErbB2(h) (Homo sapiens (Human), UniProt P04626); assay: KinaseProfiler panel; parameters: dose or concentration left out as unconfirmed; conditions: activity remaining
# PDGFRα(h) = PDGFRα(h) (Homo sapiens (Human), UniProt P16234); assay: KinaseProfiler panel; parameters: dose or concentration left out as unconfirmed; conditions: activity remaining
# PKA(h) = PKA(h) (Homo sapiens (Human), UniProt P17612); assay: KinaseProfiler panel; parameters: dose or concentration left out as unconfirmed; conditions: activity remaining
# PhKγ2(h) = PhKγ2(h) (Homo sapiens (Human), UniProt P15735); assay: KinaseProfiler panel; parameters: dose or concentration left out as unconfirmed; conditions: activity remaining
# PDK1(h) = PDK1(h) (Homo sapiens (Human), UniProt O15530); assay: KinaseProfiler panel; parameters: dose or concentration left out as unconfirmed; conditions: activity remaining
# Hck(h) activated = Hck(h) activated (Homo sapiens (Human), UniProt P08631); assay: KinaseProfiler panel; parameters: dose or concentration left out as unconfirmed; conditions: activity remaining
# DRAK1(h) = DRAK1(h) (Homo sapiens (Human), UniProt Q9UEE5); assay: KinaseProfiler panel; conditions: activity remaining
# ROCK-I(h) = ROCK-I(h) (Homo sapiens (Human), UniProt Q13464); assay: KinaseProfiler panel; parameters: dose or concentration left out as unconfirmed; conditions: activity remaining
# GCK(h) = GCK(h) (Homo sapiens (Human), UniProt Q12851); assay: KinaseProfiler panel; parameters: dose or concentration left out as unconfirmed; conditions: activity remaining
# ROCK-2 = ROCK-2 (Homo sapiens (Human), UniProt O75116); assay: KinaseProfiler radiometric assay (14-451KP); conditions: mean of at least two independent experiments
# Excerpt: In another aspect, disclosed is a method of inhibiting citron kinase in a sample, comprising contacting the sample with a compound described herein (e.g., a compound of formula (I) or a pharmaceutically acceptable salt thereof), or a pharmaceutical composition described herein (e.g., a pharmaceutical composition comprising a compound of formula (I) or a pharmaceutically acceptable salt thereof), in an amount effective to inhibit citron kinase. In some embodiments, the step of contacting the sample with the compound comprises administering the compound to a subject (e.g., a subject) suffering from cancer. Methods of determining kinase inhibition are well known in the art. For example, kinase activity of an enzyme and the inhibitory capacity of a test compound can be determined by measuring enzyme specific phosphorylation of a substrate. Commercial assays and kits can be employed. For example, kinase inhibition can be determined using a radiometric binding assay, such as using KinaseProfiler™ technology (Eurofins Discovery). This assay method directly detects product formation without the use of modified substrates or coupling enzymes. Test compounds are incubated with kinase, substrate, required cofactors and radioisotope labeled ATP. Following incubation, unreacted radioactive ATP is removed by washing and incorporation of the radiolabeled phosphate into the kinase substrate is assayed to detect phosphoryltransferase activity, which is directly proportional to the amount of phosphorylated substrate. Inhibition of the kinase by a kinase inhibitor prevents phosphorylation of the substrate and thereby limits the incorporation of radiolabeled phosphate. Such an assay is compatible with a microwell assay format, allowing simultaneous determination of IC50 of multiple compounds.
# The effect of various compounds on the inhibition of other kinases has also been determined. Table 2 reports measured IC50 values; value units are nanomolar inhibition.
# Chain of CDK9/cyclin T1(h) (P50750 whole entry): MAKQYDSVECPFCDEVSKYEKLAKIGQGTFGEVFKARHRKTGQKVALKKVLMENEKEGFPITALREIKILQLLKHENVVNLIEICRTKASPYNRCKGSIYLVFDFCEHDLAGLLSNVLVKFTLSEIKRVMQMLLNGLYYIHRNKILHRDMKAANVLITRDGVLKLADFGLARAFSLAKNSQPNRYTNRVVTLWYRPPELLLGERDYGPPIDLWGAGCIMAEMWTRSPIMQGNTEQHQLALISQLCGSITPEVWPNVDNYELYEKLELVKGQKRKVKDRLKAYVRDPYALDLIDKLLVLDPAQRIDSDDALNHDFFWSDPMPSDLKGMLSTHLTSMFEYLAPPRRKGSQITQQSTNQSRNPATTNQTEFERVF
# Chain of CDK9/cyclin T1(h) (O60563 whole entry partner): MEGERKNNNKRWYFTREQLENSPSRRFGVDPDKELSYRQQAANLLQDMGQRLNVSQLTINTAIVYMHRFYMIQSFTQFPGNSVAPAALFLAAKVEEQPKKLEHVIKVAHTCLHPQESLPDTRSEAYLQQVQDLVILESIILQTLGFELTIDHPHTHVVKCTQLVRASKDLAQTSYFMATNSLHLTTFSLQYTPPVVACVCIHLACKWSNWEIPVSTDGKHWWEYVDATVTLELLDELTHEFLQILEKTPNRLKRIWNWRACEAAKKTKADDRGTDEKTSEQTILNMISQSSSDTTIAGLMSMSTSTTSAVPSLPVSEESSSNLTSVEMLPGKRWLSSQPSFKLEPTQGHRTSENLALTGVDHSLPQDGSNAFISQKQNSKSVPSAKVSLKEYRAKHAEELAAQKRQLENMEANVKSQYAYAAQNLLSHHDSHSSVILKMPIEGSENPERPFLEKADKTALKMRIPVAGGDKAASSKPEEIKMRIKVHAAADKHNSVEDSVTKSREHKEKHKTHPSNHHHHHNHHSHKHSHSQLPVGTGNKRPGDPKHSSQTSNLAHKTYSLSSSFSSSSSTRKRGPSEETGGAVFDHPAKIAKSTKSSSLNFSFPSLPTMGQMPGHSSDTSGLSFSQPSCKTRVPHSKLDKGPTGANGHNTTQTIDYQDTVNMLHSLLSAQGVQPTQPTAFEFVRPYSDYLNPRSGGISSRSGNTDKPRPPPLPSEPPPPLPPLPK
# Chain of HIPK1(h) (Q86Z02 whole entry): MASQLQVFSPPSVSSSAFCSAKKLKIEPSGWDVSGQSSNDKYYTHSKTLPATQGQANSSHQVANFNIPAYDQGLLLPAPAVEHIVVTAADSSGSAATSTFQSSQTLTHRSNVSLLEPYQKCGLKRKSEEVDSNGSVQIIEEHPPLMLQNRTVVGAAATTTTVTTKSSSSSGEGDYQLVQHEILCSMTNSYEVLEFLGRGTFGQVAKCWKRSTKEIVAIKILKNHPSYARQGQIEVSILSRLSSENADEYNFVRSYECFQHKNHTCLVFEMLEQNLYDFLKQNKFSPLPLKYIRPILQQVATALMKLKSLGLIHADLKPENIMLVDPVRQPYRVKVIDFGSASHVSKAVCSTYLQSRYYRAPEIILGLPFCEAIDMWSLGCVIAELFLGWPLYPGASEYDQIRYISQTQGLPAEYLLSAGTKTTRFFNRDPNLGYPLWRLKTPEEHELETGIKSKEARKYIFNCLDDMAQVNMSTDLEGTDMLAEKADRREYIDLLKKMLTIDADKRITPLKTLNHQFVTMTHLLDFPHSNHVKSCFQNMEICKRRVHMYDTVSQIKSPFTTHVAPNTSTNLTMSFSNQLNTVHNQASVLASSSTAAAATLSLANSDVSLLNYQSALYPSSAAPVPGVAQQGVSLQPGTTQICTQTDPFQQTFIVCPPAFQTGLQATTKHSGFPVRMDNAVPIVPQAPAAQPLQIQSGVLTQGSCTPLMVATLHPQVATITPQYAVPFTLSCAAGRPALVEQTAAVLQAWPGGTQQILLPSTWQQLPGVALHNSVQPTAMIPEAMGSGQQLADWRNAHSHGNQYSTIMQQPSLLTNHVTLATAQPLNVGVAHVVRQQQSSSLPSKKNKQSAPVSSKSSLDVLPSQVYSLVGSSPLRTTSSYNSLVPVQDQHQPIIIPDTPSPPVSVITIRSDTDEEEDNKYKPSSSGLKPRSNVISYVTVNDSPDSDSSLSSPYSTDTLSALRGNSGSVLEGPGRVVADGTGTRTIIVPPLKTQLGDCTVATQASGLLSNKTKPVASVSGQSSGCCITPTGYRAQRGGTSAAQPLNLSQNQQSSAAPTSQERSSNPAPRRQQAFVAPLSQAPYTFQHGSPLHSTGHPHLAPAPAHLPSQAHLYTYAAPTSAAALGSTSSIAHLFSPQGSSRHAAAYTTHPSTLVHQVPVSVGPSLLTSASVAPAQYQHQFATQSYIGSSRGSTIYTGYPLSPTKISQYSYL
# Chain of FGFR4(h) (P22455 22-802): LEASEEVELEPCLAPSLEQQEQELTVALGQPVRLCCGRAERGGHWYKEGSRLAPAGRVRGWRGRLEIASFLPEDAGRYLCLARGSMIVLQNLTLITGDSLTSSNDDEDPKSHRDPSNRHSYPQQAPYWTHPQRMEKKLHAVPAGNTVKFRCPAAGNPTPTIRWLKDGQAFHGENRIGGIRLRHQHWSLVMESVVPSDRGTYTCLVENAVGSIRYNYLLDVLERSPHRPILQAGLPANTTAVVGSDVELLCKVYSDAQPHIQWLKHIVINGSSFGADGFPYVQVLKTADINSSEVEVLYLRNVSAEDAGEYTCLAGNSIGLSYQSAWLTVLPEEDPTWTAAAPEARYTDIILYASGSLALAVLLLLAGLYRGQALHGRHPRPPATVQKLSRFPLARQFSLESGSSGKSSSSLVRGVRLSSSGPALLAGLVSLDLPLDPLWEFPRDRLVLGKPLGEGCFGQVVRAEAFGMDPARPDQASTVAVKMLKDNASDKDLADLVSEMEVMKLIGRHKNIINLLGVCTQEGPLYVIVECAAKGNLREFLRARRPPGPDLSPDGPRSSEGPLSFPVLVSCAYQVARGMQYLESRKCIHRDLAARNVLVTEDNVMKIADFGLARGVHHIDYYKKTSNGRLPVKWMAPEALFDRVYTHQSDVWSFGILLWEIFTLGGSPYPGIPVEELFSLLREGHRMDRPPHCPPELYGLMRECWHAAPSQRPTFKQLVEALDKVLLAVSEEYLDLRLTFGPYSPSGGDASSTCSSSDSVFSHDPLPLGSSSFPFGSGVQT
# Chain of MLK3(h) (Q16584 whole entry): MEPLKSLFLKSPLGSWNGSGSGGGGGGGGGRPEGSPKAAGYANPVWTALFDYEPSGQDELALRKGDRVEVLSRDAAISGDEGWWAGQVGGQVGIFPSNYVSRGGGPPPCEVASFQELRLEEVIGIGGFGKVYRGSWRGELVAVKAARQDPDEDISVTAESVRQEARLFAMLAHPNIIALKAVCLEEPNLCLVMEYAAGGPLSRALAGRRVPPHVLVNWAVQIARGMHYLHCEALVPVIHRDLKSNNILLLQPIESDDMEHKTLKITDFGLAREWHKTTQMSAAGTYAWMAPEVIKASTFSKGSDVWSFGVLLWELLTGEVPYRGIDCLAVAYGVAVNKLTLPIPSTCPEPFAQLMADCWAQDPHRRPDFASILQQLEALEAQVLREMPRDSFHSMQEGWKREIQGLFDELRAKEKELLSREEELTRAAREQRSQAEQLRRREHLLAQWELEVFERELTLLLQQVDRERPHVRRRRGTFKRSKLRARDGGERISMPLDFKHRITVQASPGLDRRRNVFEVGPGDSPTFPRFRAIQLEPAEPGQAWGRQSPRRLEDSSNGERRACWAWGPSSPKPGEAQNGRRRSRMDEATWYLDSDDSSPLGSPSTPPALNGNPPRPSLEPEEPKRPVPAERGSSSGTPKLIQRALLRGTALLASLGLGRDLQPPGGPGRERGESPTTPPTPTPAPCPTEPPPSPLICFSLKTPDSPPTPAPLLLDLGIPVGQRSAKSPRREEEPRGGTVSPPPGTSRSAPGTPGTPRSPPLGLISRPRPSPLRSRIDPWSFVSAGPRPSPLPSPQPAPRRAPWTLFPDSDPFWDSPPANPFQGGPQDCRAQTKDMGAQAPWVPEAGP
# Chain of GCK(h) (Q12851 whole entry): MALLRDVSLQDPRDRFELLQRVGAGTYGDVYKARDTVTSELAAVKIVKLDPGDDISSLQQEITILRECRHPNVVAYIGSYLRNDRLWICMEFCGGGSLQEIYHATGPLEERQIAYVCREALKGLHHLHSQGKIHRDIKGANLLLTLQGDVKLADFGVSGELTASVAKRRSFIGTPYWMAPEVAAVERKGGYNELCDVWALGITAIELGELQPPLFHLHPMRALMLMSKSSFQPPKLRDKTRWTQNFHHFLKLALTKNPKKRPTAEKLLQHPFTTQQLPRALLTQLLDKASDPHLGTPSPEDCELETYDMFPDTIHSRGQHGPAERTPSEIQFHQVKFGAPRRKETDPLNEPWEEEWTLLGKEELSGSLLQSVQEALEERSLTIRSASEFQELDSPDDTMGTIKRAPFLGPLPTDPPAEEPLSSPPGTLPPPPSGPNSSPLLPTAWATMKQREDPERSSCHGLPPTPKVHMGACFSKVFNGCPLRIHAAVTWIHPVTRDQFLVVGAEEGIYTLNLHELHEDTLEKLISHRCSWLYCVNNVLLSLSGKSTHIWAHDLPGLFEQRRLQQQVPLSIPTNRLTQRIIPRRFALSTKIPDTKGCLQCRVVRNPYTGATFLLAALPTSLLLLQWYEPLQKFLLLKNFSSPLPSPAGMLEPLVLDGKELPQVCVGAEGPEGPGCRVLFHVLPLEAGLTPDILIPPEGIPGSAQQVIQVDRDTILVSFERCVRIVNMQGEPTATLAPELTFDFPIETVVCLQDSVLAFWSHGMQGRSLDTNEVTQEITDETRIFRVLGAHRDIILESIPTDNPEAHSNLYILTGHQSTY
smiles,measurement,setting,value
"Cc1cc2c(-c3ccc(NC(=O)[C@H](N)CC(C)(C)C)cc3C)ccnc2[nH]1 [Compound F-90, (2R)-2-Amino-4,4-dimethyl-N-[3-methyl-4-(2-methyl-1H-pyrrolo[2,3-b]pyridin-4-yl)phenyl]pentanamide]",% Activity,PKD2(h),95%
same,% Activity,BRK(h),83%
same,% Activity,TSSK4(h),117%
same,% Activity,TLK2(h),92%
same,% Activity,PASK(h),72%
same,% Activity,HIPK2(h),105%
same,% Activity,MLK3(h),91%
same,% Activity,Abl(h),99%
same,% Activity,p70S6K(h),93%
same,% Activity,BrSK2(h),83%
same,% Activity,FGFR4(h),114%
same,% Activity,HIPK1(h),100%
same,% Activity,CDK9/cyclin T1(h),81%
same,% Activity,CHK2(h),95%
same,% Activity,TGFBR2(h),96%
same,% Activity,PAR-1Bα(h),88%
same,% Activity,ErbB2(h),97%
same,% Activity,PDGFRα(h),116%
same,% Activity,PKA(h),109%
same,% Activity,PhKγ2(h),98%
same,% Activity,PDK1(h),105%
same,% Activity,Hck(h) activated,111%
same,% Activity,DRAK1(h),80%
same,% Activity,ROCK-I(h),96%
same,% Activity,GCK(h),118%
same,IC50,ROCK-2,> 3 µM
